≈ marks a conversion by molar mass, not a printed value.
Assays:
Format in all cases: functional
Staphylococcus aureus [1] = assay: Antibacterial activity against erythromycin-susceptible Staphylococcus aureus ATCC 25923
Streptococcus pneumoniae [2] = assay: Antibacterial activity against erythromycin-susceptible Streptococcus pneumoniae ATCC 49619
Pseudomonas aeruginosa = assay: Antibacterial activity against Pseudomonas aeruginosa ATCC 27853
Staphylococcus aureus [3] = assay: Antibacterial activity against methicillin-susceptible Staphylococcus aureus ATCC 29213
Escherichia coli = assay: Antibacterial activity against Escherichia coli ATCC 25922
Streptococcus pneumoniae [4] = assay: Antibacterial activity against erythromycin-resistant Streptococcus pneumoniae A22072 expressing mefA gene
Streptococcus pyogenes [5] = assay: Antibacterial activity against erythromycin-susceptible Streptococcus pyogenes isolate S2
Streptococcus pneumoniae [6] = assay: Antibacterial activity against erythromycin-resistant Streptococcus pneumoniae B1 expressing ermB gene
Streptococcus pyogenes [7] = assay: Antibacterial activity against erythromycin-resistant Streptococcus pyogenes isolate R2
Streptococcus pneumoniae [8] = assay: Antibacterial activity against erythromycin-resistant Streptococcus pneumoniae AB11 expressing ermB/mefA gene

Compound | MIC (Staphylococcus aureus [1]) | MIC (Streptococcus pneumoniae [2]) | MIC (Pseudomonas aeruginosa) | MIC (Staphylococcus aureus [3]) | MIC (Escherichia coli) | MIC (Streptococcus pneumoniae [4]) | MIC (Streptococcus pyogenes [5]) | MIC (Streptococcus pneumoniae [6]) | MIC (Streptococcus pyogenes [7]) | MIC (Streptococcus pneumoniae [8])
CC[C@H]1OC(=O)[C@H](C)[C@@H](O[C@H]2C[C@@](C)(OC)[C@@H](OC(=O)NCc3cn(Cc4ccccc4)nn3)[C@H](C)O2)[C@H](C)[C@@H](O[C@@H]2O[C@H](C)C[C@H](N(C)C)[C@H]2O)[C@](C)(O)C[C@@H](C)CN(C)[C@H](C)[C@@H](OC(=O)NCc2ccccc2)[C@]1(C)O | 0.016 µg/mL (≈ 0.0146 µM) | 0.125 µg/mL (≈ 0.114 µM) | 32 µg/mL (≈ 29.2 µM) | 16 µg/mL (≈ 14.6 µM) | 16 µg/mL (≈ 14.6 µM) | 0.25 µg/mL (≈ 0.228 µM) | < 0.002 µg/mL | 0.25 µg/mL (≈ 0.228 µM) | 32 µg/mL (≈ 29.2 µM) | 0.25 µg/mL (≈ 0.228 µM)
CC[C@H]1OC(=O)[C@H](C)[C@@H](O[C@H]2C[C@@](C)(OC)[C@@H](OC(=O)NCc3cn(Cc4ccc(C)cc4)nn3)[C@H](C)O2)[C@H](C)[C@@H](O[C@@H]2O[C@H](C)C[C@H](N(C)C)[C@H]2O)[C@](C)(O)C[C@@H](C)CN(C)[C@H](C)[C@@H](OC(=O)NCc2ccccc2)[C@]1(C)O | 0.5 µg/mL (≈ 0.45 µM) | 0.125 µg/mL (≈ 0.113 µM) | 32 µg/mL (≈ 28.8 µM) | 16 µg/mL (≈ 14.4 µM) | 32 µg/mL (≈ 28.8 µM) | 0.125 µg/mL (≈ 0.113 µM) | < 0.002 µg/mL | 0.25 µg/mL (≈ 0.225 µM) | 32 µg/mL (≈ 28.8 µM) | 0.25 µg/mL (≈ 0.225 µM)
CC[C@H]1OC(=O)[C@H](C)[C@@H](O[C@H]2C[C@@](C)(OC)[C@@H](OC(=O)NCc3cn(C4CCCCC4)nn3)[C@H](C)O2)[C@H](C)[C@@H](O[C@@H]2O[C@H](C)C[C@H](N(C)C)[C@H]2O)[C@](C)(O)C[C@@H](C)CN(C)[C@H](C)[C@H]2OC(=O)O[C@@]21C | 16 µg/mL (≈ 16.3 µM) | 1 µg/mL (≈ 1.02 µM) | 64 µg/mL (≈ 65.2 µM) | 64 µg/mL (≈ 65.2 µM) | 128 µg/mL (≈ 130 µM) | 1 µg/mL (≈ 1.02 µM) | 0.25 µg/mL (≈ 0.255 µM) | 8 µg/mL (≈ 8.15 µM) | 32 µg/mL (≈ 32.6 µM) | 4 µg/mL (≈ 4.08 µM)
CC[C@H]1OC(=O)[C@H](C)[C@@H](O[C@H]2C[C@@](C)(OC)[C@@H](OC(=O)NCc3cn(Cc4ccccc4F)nn3)[C@H](C)O2)[C@H](C)[C@@H](O[C@@H]2O[C@H](C)C[C@H](N(C)C)[C@H]2O)[C@](C)(O)C[C@@H](C)CN(C)[C@H](C)[C@H]2OC(=O)O[C@@]21C | 4 µg/mL (≈ 3.97 µM) | 0.5 µg/mL (≈ 0.496 µM) | 64 µg/mL (≈ 63.5 µM) | 32 µg/mL (≈ 31.8 µM) | 128 µg/mL (≈ 127 µM) | 1 µg/mL (≈ 0.993 µM) | 0.125 µg/mL (≈ 0.124 µM) | 2 µg/mL (≈ 1.99 µM) | 128 µg/mL (≈ 127 µM) | 0.25 µg/mL (≈ 0.248 µM)
CC[C@H]1OC(=O)[C@H](C)[C@@H](O[C@H]2C[C@@](C)(OC)[C@@H](OC(=O)NCc3cn(Cc4ccccc4Cl)nn3)[C@H](C)O2)[C@H](C)[C@@H](O[C@@H]2O[C@H](C)C[C@H](N(C)C)[C@H]2O)[C@](C)(O)C[C@@H](C)CN(C)[C@H](C)[C@@H](O)[C@]1(C)O | 1 µg/mL (≈ 1 µM) | 0.25 µg/mL (≈ 0.251 µM) | 32 µg/mL (≈ 32.1 µM) | 8 µg/mL (≈ 8.02 µM) | 128 µg/mL (≈ 128 µM) | 0.25 µg/mL (≈ 0.251 µM) | 0.03 µg/mL (≈ 0.0301 µM) | 1 µg/mL (≈ 1 µM) | 64 µg/mL (≈ 64.1 µM) | 0.5 µg/mL (≈ 0.501 µM)
CC[C@H]1OC(=O)[C@H](C)[C@@H](O[C@H]2C[C@@](C)(OC)[C@@H](OC(=O)NCc3cn(Cc4ccccc4C)nn3)[C@H](C)O2)[C@H](C)[C@@H](O[C@@H]2O[C@H](C)C[C@H](N(C)C)[C@H]2O)[C@](C)(O)C[C@@H](C)CN(C)[C@H](C)[C@@H](O)[C@]1(C)O | 1 µg/mL (≈ 1.02 µM) | 0.25 µg/mL (≈ 0.256 µM) | 64 µg/mL (≈ 65.5 µM) | 16 µg/mL (≈ 16.4 µM) | 16 µg/mL (≈ 16.4 µM) | 0.5 µg/mL (≈ 0.512 µM) | 0.03 µg/mL (≈ 0.0307 µM) | 0.5 µg/mL (≈ 0.512 µM) | 64 µg/mL (≈ 65.5 µM) | 0.5 µg/mL (≈ 0.512 µM)
CC[C@H]1OC(=O)[C@H](C)[C@@H](O[C@H]2C[C@@](C)(OC)[C@@H](OC(=O)NCc3cn(Cc4c(Cl)cccc4Cl)nn3)[C@H](C)O2)[C@H](C)[C@@H](O[C@@H]2O[C@H](C)C[C@H](N(C)C)[C@H]2O)[C@](C)(O)C[C@@H](C)CN(C)[C@H](C)[C@@H](OC(=O)NCc2ccccc2)[C@]1(C)O | 0.25 µg/mL (≈ 0.215 µM) | 0.125 µg/mL (≈ 0.107 µM) | 32 µg/mL (≈ 27.5 µM) | 16 µg/mL (≈ 13.7 µM) | 32 µg/mL (≈ 27.5 µM) | 0.25 µg/mL (≈ 0.215 µM) | < 0.002 µg/mL | 0.25 µg/mL (≈ 0.215 µM) | 64 µg/mL (≈ 54.9 µM) | 0.25 µg/mL (≈ 0.215 µM)
CC[C@H]1OC(=O)[C@H](C)[C@@H](O[C@H]2C[C@@](C)(OC)[C@@H](OC(=O)NCc3cn(Cc4ccccc4Cl)nn3)[C@H](C)O2)[C@H](C)[C@@H](O[C@@H]2O[C@H](C)C[C@H](N(C)C)[C@H]2O)[C@](C)(O)C[C@@H](C)CN(C)[C@H](C)[C@H]2OC(=O)O[C@@]21C | 4 µg/mL (≈ 3.91 µM) | 1 µg/mL (≈ 0.977 µM) | 64 µg/mL (≈ 62.5 µM) | 32 µg/mL (≈ 31.3 µM) | 128 µg/mL (≈ 125 µM) | 2 µg/mL (≈ 1.95 µM) | 0.06 µg/mL (≈ 0.0586 µM) | 8 µg/mL (≈ 7.82 µM) | 16 µg/mL (≈ 15.6 µM) | 4 µg/mL (≈ 3.91 µM)
CC[C@H]1OC(=O)[C@H](C)[C@@H](O[C@H]2C[C@@](C)(OC)[C@@H](OC(=O)NCc3cn(Cc4ccccc4C)nn3)[C@H](C)O2)[C@H](C)[C@@H](O[C@@H]2O[C@H](C)C[C@H](N(C)C)[C@H]2O)[C@](C)(O)C[C@@H](C)CN(C)[C@H](C)[C@H]2OC(=O)O[C@@]21C | 4 µg/mL (≈ 3.99 µM) | 0.5 µg/mL (≈ 0.498 µM) | 64 µg/mL (≈ 63.8 µM) | 32 µg/mL (≈ 31.9 µM) | 128 µg/mL (≈ 128 µM) | 2 µg/mL (≈ 1.99 µM) | 0.06 µg/mL (≈ 0.0598 µM) | 4 µg/mL (≈ 3.99 µM) | 64 µg/mL (≈ 63.8 µM) | 2 µg/mL (≈ 1.99 µM)
CC[C@H]1OC(=O)[C@H](C)[C@@H](O[C@H]2C[C@@](C)(OC)[C@@H](OC(=O)NCc3cn(Cc4ccccc4)nn3)[C@H](C)O2)[C@H](C)[C@@H](O[C@@H]2O[C@H](C)C[C@H](N(C)C)[C@H]2O)[C@](C)(O)C[C@@H](C)CN(C)[C@H](C)[C@@H](OC(=O)NCCc2ccccc2)[C@]1(C)O | 0.25 µg/mL (≈ 0.225 µM) | 0.125 µg/mL (≈ 0.113 µM) | 8 µg/mL (≈ 7.2 µM) | 16 µg/mL (≈ 14.4 µM) | 16 µg/mL (≈ 14.4 µM) | 0.125 µg/mL (≈ 0.113 µM) | < 0.002 µg/mL | 0.25 µg/mL (≈ 0.225 µM) | 32 µg/mL (≈ 28.8 µM) | 0.25 µg/mL (≈ 0.225 µM)
CC[C@H]1OC(=O)[C@H](C)[C@@H](O[C@H]2C[C@@](C)(OC)[C@@H](O)[C@H](C)O2)[C@H](C)[C@@H](O[C@@H]2O[C@H](C)C[C@H](N(C)C)[C@H]2O)[C@](C)(O)C[C@@H](C)CN(C)[C@H](C)[C@@H](O)[C@]1(C)O [AZITHROMYCIN] | 0.25 µg/mL (≈ 0.334 µM) | 0.125 µg/mL (≈ 0.167 µM) | 8 µg/mL (≈ 10.7 µM) | 1 µg/mL (≈ 1.34 µM) | 16 µg/mL (≈ 21.4 µM) | 4 µg/mL (≈ 5.34 µM) | 0.03 µg/mL (≈ 0.0401 µM) | 128 µg/mL (≈ 171 µM) | 128 µg/mL (≈ 171 µM) | 256 µg/mL (≈ 342 µM)
CC[C@H]1OC(=O)[C@H](C)[C@@H](O[C@H]2C[C@@](C)(OC)[C@@H](OC(=O)NCc3cn(Cc4cccc(F)c4)nn3)[C@H](C)O2)[C@H](C)[C@@H](O[C@@H]2O[C@H](C)C[C@H](N(C)C)[C@H]2O)[C@](C)(O)C[C@@H](C)CN(C)[C@H](C)[C@H]2OC(=O)O[C@@]21C | 4 µg/mL (≈ 3.97 µM) | 1 µg/mL (≈ 0.993 µM) | 64 µg/mL (≈ 63.5 µM) | 32 µg/mL (≈ 31.8 µM) | 128 µg/mL (≈ 127 µM) | 4 µg/mL (≈ 3.97 µM) | 0.125 µg/mL (≈ 0.124 µM) | 4 µg/mL (≈ 3.97 µM) | 128 µg/mL (≈ 127 µM) | 0.5 µg/mL (≈ 0.496 µM)
CC[C@H]1OC(=O)[C@H](C)[C@@H](O[C@H]2C[C@@](C)(OC)[C@@H](OC(=O)NCc3cn(Cc4c(Cl)cccc4Cl)nn3)[C@H](C)O2)[C@H](C)[C@@H](O[C@@H]2O[C@H](C)C[C@H](N(C)C)[C@H]2O)[C@](C)(O)C[C@@H](C)CN(C)[C@H](C)[C@@H](O)[C@]1(C)O | 1 µg/mL (≈ 0.969 µM) | 0.5 µg/mL (≈ 0.484 µM) | 32 µg/mL (≈ 31 µM) | 16 µg/mL (≈ 15.5 µM) | 32 µg/mL (≈ 31 µM) | 0.5 µg/mL (≈ 0.484 µM) | 0.03 µg/mL (≈ 0.0291 µM) | 0.5 µg/mL (≈ 0.484 µM) | 32 µg/mL (≈ 31 µM) | 0.5 µg/mL (≈ 0.484 µM)
